In the supplement of paper PMC10627819:

Columns and labels:
Assay in all cases: fitness (endpoint OD595 vs no drug) (fraction); higher = more growth
S. pneumoniae D39V = test system: S. pneumoniae D39V
Method in brief: (§1)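 Fitness was defined as the optical density at the transition into stationary phase relative to the robust mean of no-drug control wells. Values were capped at 1. Cultures were started at OD595 0.01 in 384-well plates (30 µl, or 55 µl for S. pneumoniae) in TSB, LB Lennox or CY at 37 °C. OD595 was recorded every 30 min over 14 h, with the first reading subtracted as background.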

B. subtilis 168 = test system: B. subtilis 168
Method in brief: as §1

S. aureus DSM 20231 = test system: S. aureus DSM 20231
Method in brief: as §1

S. aureus Newman = test system: S. aureus Newman
Method in brief: as §1

CCC[C@@H]1C[C@@H](C(=O)N[C@@H]([C@H]2O[C@H](SC)[C@H](O)[C@@H](O)[C@H]2O)[C@H](C)Cl)N(C)C1 [Clindamycin] + CN(C)[C@@H]1C(O)=C(C(N)=O)C(=O)[C@@]2(O)C(O)=C3C(=O)c4c(O)ccc(Cl)c4[C@@](C)(O)[C@H]3C[C@@H]12 [Chlortetracycline]
Conditions | fitness
B. subtilis 168, first compound 0.0625 µg/mL, partner 0.0475 µg/mL | 0.407
B. subtilis 168, first compound 0.0625 µg/mL, partner 0.095 µg/mL | 0.362
B. subtilis 168, first compound 0.0625 µg/mL, partner 0.19 µg/mL | 0.0596
B. subtilis 168, first compound 0.125 µg/mL, partner 0.0475 µg/mL | 0.352
B. subtilis 168, first compound 0.125 µg/mL, partner 0.095 µg/mL | 0.0555
B. subtilis 168, first compound 0.125 µg/mL, partner 0.19 µg/mL | 0.0594
B. subtilis 168, first compound 0.25 µg/mL, partner 0.0475 µg/mL | 0.0818
B. subtilis 168, first compound 0.25 µg/mL, partner 0.095 µg/mL | 0.0386
B. subtilis 168, first compound 0.25 µg/mL, partner 0.19 µg/mL | 0.0515
S. aureus DSM 20231, first compound 0.0312 µg/mL, partner 0.012 µg/mL | 0.0617
S. aureus DSM 20231, first compound 0.0312 µg/mL, partner 0.024 µg/mL | 0.038
S. aureus DSM 20231, first compound 0.0312 µg/mL, partner 0.048 µg/mL | 0.0237
S. aureus DSM 20231, first compound 0.0625 µg/mL, partner 0.012 µg/mL | 0.032
S. aureus DSM 20231, first compound 0.0625 µg/mL, partner 0.024 µg/mL | 0.0211
S. aureus DSM 20231, first compound 0.0625 µg/mL, partner 0.048 µg/mL | 0.0234
S. aureus DSM 20231, first compound 0.125 µg/mL, partner 0.012 µg/mL | 0.0303
S. aureus DSM 20231, first compound 0.125 µg/mL, partner 0.024 µg/mL | 0.0207
S. aureus DSM 20231, first compound 0.125 µg/mL, partner 0.048 µg/mL | 0.0343
S. pneumoniae D39V, first compound 0.0125 µg/mL, partner 0.012 µg/mL | 0.511
S. pneumoniae D39V, first compound 0.0125 µg/mL, partner 0.024 µg/mL | 0.383
S. pneumoniae D39V, first compound 0.0125 µg/mL, partner 0.048 µg/mL | 0.205
S. pneumoniae D39V, first compound 0.015 µg/mL, partner 0.375 µg/mL | 0.0214
S. pneumoniae D39V, first compound 0.015 µg/mL, partner 0.75 µg/mL | 0.0514
S. pneumoniae D39V, first compound 0.015 µg/mL, partner 1.5 µg/mL | 0.0726
S. pneumoniae D39V, first compound 0.025 µg/mL, partner 0.012 µg/mL | 0.334
S. pneumoniae D39V, first compound 0.025 µg/mL, partner 0.024 µg/mL | 0.216
S. pneumoniae D39V, first compound 0.025 µg/mL, partner 0.048 µg/mL | 0.122
S. pneumoniae D39V, first compound 0.03 µg/mL, partner 0.375 µg/mL | 0.0643
S. pneumoniae D39V, first compound 0.03 µg/mL, partner 0.75 µg/mL | 0.0687
S. pneumoniae D39V, first compound 0.03 µg/mL, partner 1.5 µg/mL | 0.0605
S. pneumoniae D39V, first compound 0.05 µg/mL, partner 0.012 µg/mL | 0.128
S. pneumoniae D39V, first compound 0.05 µg/mL, partner 0.024 µg/mL | 0.13
S. pneumoniae D39V, first compound 0.05 µg/mL, partner 0.048 µg/mL | 0.146
S. pneumoniae D39V, first compound 0.06 µg/mL, partner 0.375 µg/mL | 0.0503
S. pneumoniae D39V, first compound 0.06 µg/mL, partner 0.75 µg/mL | 0.0714
S. pneumoniae D39V, first compound 0.06 µg/mL, partner 1.5 µg/mL | 0.0678

fitness, one replicate
Conditions | first compound 0.0039 µg/mL | first compound 0.0078 µg/mL | first compound 0.0156 µg/mL | first compound 0.0312 µg/mL | first compound 0.0625 µg/mL | first compound 0.125 µg/mL
B. subtilis 168, partner 0.0475 µg/mL | 0.996 | 0.88 | 0.814 | – | – | –
B. subtilis 168, partner 0.095 µg/mL | 0.911 | 0.831 | 0.721 | – | – | –
B. subtilis 168, partner 0.19 µg/mL | 0.779 | 0.697 | 0.633 | – | – | –
S. aureus DSM 20231, partner 0.006 µg/mL | – | – | – | 0.198 | 0.0507 | 0.029

CCC[C@@H]1C[C@@H](C(=O)N[C@@H]([C@H]2O[C@H](SC)[C@H](O)[C@@H](O)[C@H]2O)[C@H](C)Cl)N(C)C1 [Clindamycin] + CO/N=C(\C(=O)N[C@@H]1C(=O)N2C(C(=O)O)=C(COC(N)=O)CS[C@H]12)c1ccco1 [Cefuroxime]
one replicate
Conditions | fitness
B. subtilis 168, first compound 0.0039 µg/mL, partner 0.195 µg/mL | 0.442
B. subtilis 168, first compound 0.0039 µg/mL, partner 0.39 µg/mL | 0.397
B. subtilis 168, first compound 0.0039 µg/mL, partner 0.78 µg/mL | 0.389
B. subtilis 168, first compound 0.0078 µg/mL, partner 0.195 µg/mL | 0.438
B. subtilis 168, first compound 0.0078 µg/mL, partner 0.39 µg/mL | 0.367
B. subtilis 168, first compound 0.0078 µg/mL, partner 0.78 µg/mL | 0.392
B. subtilis 168, first compound 0.0156 µg/mL, partner 0.195 µg/mL | 0.366
B. subtilis 168, first compound 0.0156 µg/mL, partner 0.39 µg/mL | 0.326
B. subtilis 168, first compound 0.0156 µg/mL, partner 0.78 µg/mL | 0.28
B. subtilis 168, first compound 0.0625 µg/mL, partner 1.562 µg/mL | 0.135
B. subtilis 168, first compound 0.0625 µg/mL, partner 3.125 µg/mL | 0.0691
B. subtilis 168, first compound 0.0625 µg/mL, partner 6.25 µg/mL | 0.0572
B. subtilis 168, first compound 0.125 µg/mL, partner 1.562 µg/mL | 0.0526
B. subtilis 168, first compound 0.125 µg/mL, partner 3.125 µg/mL | 0.031
B. subtilis 168, first compound 0.125 µg/mL, partner 6.25 µg/mL | 0.0267
B. subtilis 168, first compound 0.25 µg/mL, partner 1.562 µg/mL | 0.0448
B. subtilis 168, first compound 0.25 µg/mL, partner 3.125 µg/mL | 0.028
B. subtilis 168, first compound 0.25 µg/mL, partner 6.25 µg/mL | 0.0276
S. aureus Newman, first compound 0.0312 µg/mL, partner 0.04875 µg/mL | 0.764
S. aureus Newman, first compound 0.0312 µg/mL, partner 0.0975 µg/mL | 0.681
S. aureus Newman, first compound 0.0312 µg/mL, partner 0.195 µg/mL | 0.718
S. aureus Newman, first compound 0.0625 µg/mL, partner 0.04875 µg/mL | 0.358
S. aureus Newman, first compound 0.0625 µg/mL, partner 0.0975 µg/mL | 0.304
S. aureus Newman, first compound 0.0625 µg/mL, partner 0.195 µg/mL | 0.21
S. aureus Newman, first compound 0.125 µg/mL, partner 0.04875 µg/mL | 0.111
S. aureus Newman, first compound 0.125 µg/mL, partner 0.0975 µg/mL | 0.0924
S. aureus Newman, first compound 0.125 µg/mL, partner 0.195 µg/mL | 0.078

fitness, B. subtilis 168
Conditions | first compound 0.0625 µg/mL | first compound 0.125 µg/mL | first compound 0.25 µg/mL
partner 0.04875 µg/mL | 0.396 | 0.401 | 0.218
partner 0.0975 µg/mL | 0.306 | 0.241 | 0.195
partner 0.195 µg/mL | 0.39 | 0.217 | 0.217

N[C@@H]1CONC1=O [Cycloserine D] + CC1=C(C(=O)O)N2C(=O)[C@@H](NC(=O)[C@H](N)c3ccccc3)[C@H]2SC1 [Cephalexin]
fitness
Conditions | first compound 0.125 µg/mL | first compound 0.25 µg/mL | first compound 0.375 µg/mL | first compound 0.5 µg/mL | first compound 0.75 µg/mL | first compound 1.5 µg/mL
B. subtilis 168, partner 0.125 µg/mL | 0.865 | 0.894 | – | 0.848 | – | –
B. subtilis 168, partner 0.25 µg/mL | 0.909 | 0.857 | – | 0.921 | – | –
B. subtilis 168, partner 0.5 µg/mL | 0.911 | 0.88 | – | 0.867 | – | –
S. aureus Newman, partner 0.25 µg/mL | – | – | 0.948 | – | 0.955 | 0.926
S. aureus Newman, partner 0.5 µg/mL | – | – | 0.972 | – | ≥ 1 | 0.971
S. aureus Newman, partner 1 µg/mL | – | – | 0.992 | – | ≥ 1 | 0.995

B. subtilis 168, partner 1 µg/mL, one replicate
Conditions | fitness
first compound 0.125 µg/mL | ≥ 1
first compound 0.25 µg/mL | 0.91
first compound 0.5 µg/mL | 0.985

N[C@@H]1CONC1=O [Cycloserine D] + CC(=O)NC[C@H]1CN(c2ccc(N3CCOCC3)c(F)c2)C(=O)O1 [Linezolid]
fitness, one replicate
Conditions | first compound 0.125 µg/mL | first compound 0.25 µg/mL | first compound 0.375 µg/mL | first compound 0.5 µg/mL | first compound 0.75 µg/mL | first compound 1.5 µg/mL
B. subtilis 168, partner 0.0625 µg/mL | 0.943 | 0.866 | – | 0.846 | – | –
S. aureus DSM 20231, partner 1 µg/mL | – | – | 0.0372 | – | 0.0417 | 0.0279

fitness
Conditions | first compound 0.125 µg/mL | first compound 0.25 µg/mL | first compound 0.375 µg/mL | first compound 0.5 µg/mL | first compound 0.75 µg/mL | first compound 1.5 µg/mL
B. subtilis 168, partner 0.125 µg/mL | 0.566 | 0.574 | – | 0.562 | – | –
B. subtilis 168, partner 0.25 µg/mL | 0.135 | 0.115 | – | 0.13 | – | –
B. subtilis 168, partner 0.5 µg/mL | 0.0466 | 0.0569 | – | 0.0486 | – | –
S. aureus DSM 20231, partner 0.125 µg/mL | – | – | 0.913 | – | 0.837 | 0.885
S. aureus DSM 20231, partner 0.25 µg/mL | – | – | 0.517 | – | 0.597 | 0.537
S. aureus DSM 20231, partner 0.5 µg/mL | – | – | 0.162 | – | 0.168 | 0.162

N[C@@H]1CONC1=O [Cycloserine D] + CC(C1CCC(C(O1)OC2C(CC(C(C2O)OC3C(C(C(CO3)(C)O)NC)O)N)N)N)NC [Gentamicin]
main component drawn
Conditions | fitness
B. subtilis 168, first compound 0.125 µg/mL, partner 0.0625 µg/mL | 0.964
B. subtilis 168, first compound 0.125 µg/mL, partner 0.25 µg/mL | 0.102
B. subtilis 168, first compound 0.25 µg/mL, partner 0.0625 µg/mL | 0.943
B. subtilis 168, first compound 0.25 µg/mL, partner 0.25 µg/mL | 0.0775
B. subtilis 168, first compound 0.5 µg/mL, partner 0.0625 µg/mL | 0.914
B. subtilis 168, first compound 0.5 µg/mL, partner 0.25 µg/mL | 0.0653
S. aureus Newman, first compound 0.375 µg/mL, partner 0.375 µg/mL | 0.986
S. aureus Newman, first compound 0.375 µg/mL, partner 0.5 µg/mL | 0.923
S. aureus Newman, first compound 0.375 µg/mL, partner 0.75 µg/mL | 0.974
S. aureus Newman, first compound 0.375 µg/mL, partner 1 µg/mL | ≥ 1
S. aureus Newman, first compound 0.375 µg/mL, partner 1.5 µg/mL | 0.955
S. aureus Newman, first compound 0.375 µg/mL, partner 2 µg/mL | ≥ 1
S. aureus Newman, first compound 0.75 µg/mL, partner 0.375 µg/mL | ≥ 1
S. aureus Newman, first compound 0.75 µg/mL, partner 0.5 µg/mL | 0.921
S. aureus Newman, first compound 0.75 µg/mL, partner 0.75 µg/mL | ≥ 1
S. aureus Newman, first compound 0.75 µg/mL, partner 1 µg/mL | ≥ 1
S. aureus Newman, first compound 0.75 µg/mL, partner 2 µg/mL | ≥ 1
S. aureus Newman, first compound 1.5 µg/mL, partner 0.375 µg/mL | 1
S. aureus Newman, first compound 1.5 µg/mL, partner 0.5 µg/mL | 0.952
S. aureus Newman, first compound 1.5 µg/mL, partner 0.75 µg/mL | ≥ 1
S. aureus Newman, first compound 1.5 µg/mL, partner 1 µg/mL | ≥ 1
S. aureus Newman, first compound 1.5 µg/mL, partner 2 µg/mL | ≥ 1
